In BindingDB's records for doi:10.1021/jm2013997 (Oxagen, 2012):

What was measured:
[1] = Partial antagonist activity at CRTH2 in human eosinophils assessed as inhibition of PGD2-induced shape change by FACS analysis
[2] = Antagonist activity at CRTH2 in human eosinophils assessed as inhibition of PGD2-induced shape change by gated autofluorescence forward scatter analysis

Row | Structure (SMILES) | EC50 [1] | IC50 [2]
1 | COc1ccc2c(c1)c(CC(=O)O)c(C)n2C(=O)c1ccc(Cl)cc1 [indometacin] | 389 nM | 
2 | CN(C)c1nc(Cc2ccc(NC(=O)c3ccc(C(F)(F)F)cc3)cc2)nc(N(C)C)c1CC(=O)O [2-(4,6-bis(dimethylamino)-2-(4-(4-(trifluoromethyl)benzamido)benzyl)pyrimidin-5-yl)acetic acid] |  | 626 nM
3 | C[C@H](Oc1ccc(F)cc1-c1ccc(C(=O)N2CCCC2(C)C)c(Cl)c1)C(=O)O |  | 44 nM
